Source: PubChem BioAssay (NCI)
“And” between values parts separate entries of the source, which are not always exact repeats. Equal values may be shown once.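 Briefly, cells in 96-well plates were exposed to five compound concentrations for 48 h, and endpoints were estimated by linear interpolation. GI50 = concentration required for 50% inhibition of growth. TGI: total growth inhibition.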

Experiments:
Assay in all cases: NCI tumour cell line growth inhibition, 48 h
[1] = system: SK-OV-3 ovarian
[2] = system: SNB-19 CNS
[3] = system: UACC-62 melanoma
[4] = system: COLO 205 colon
[5] = system: SF-295 CNS
[6] = system: SN12C renal
[7] = system: SNB-75 CNS
[8] = system: HOP-92 NSCLC
[9] = system: T-47D breast
[10] = system: HS 578T breast

Structure (SMILES) | TGI [1] [µM] | TGI [2] | TGI [3] [µM] | TGI [4] [µM] | TGI [5] | TGI [6] [µM] | TGI [7] | TGI [8] | GI50 [6] [µM] | GI50 [1] | GI50 [2] | GI50 [3] [µM] | GI50 [4] [µM] | GI50 [5] | GI50 [7] [µM] | GI50 [9] [µM] | TGI [9] [µM] | GI50 [8] | GI50 [10] [µM] | TGI [10] [µM]
Cc1nc(-n2nc(-c3ccccc3)cc2-c2ccccc2)sc1C(=O)/C=C/c1ccccc1 | > 100 | > 100 µM | > 100 | > 100 | > 100 µM | > 100 | 89.7 µM | > 100 µM | – | – | – | – | – | – | – | – | – | – | – | –
O=c1cccccc1[O-].O=c1cccccc1[O-].O=c1cccccc1[O-].[Sm+3] | > 100 | > 100 µM | > 100 | – | > 100 µM | > 100 | – | > 100 µM | 26.8 | – | – | – | – | – | – | – | – | – | – | –
Nc1ccc(C(=O)/C=C/c2ccccc2O)cc1 | > 100 | > 100 µM | > 100 | > 100 | > 100 µM | > 100 | > 100 µM | – | – | – | – | – | – | – | – | – | – | – | – | –
O=C1CNN=C(Cn2nc(-c3ccccc3)c3ccccc3c2=O)N1 | > 100 | > 100 µM | > 100 | > 100 | > 100 µM | > 100 | > 100 µM | > 100 µM | – | – | – | – | – | – | – | – | – | – | – | –
CC1CC(C)C(C(O)CC2CC(=O)N(c3ccccc3)C(=O)C2)C(O)C1 (stereo not drawn) | > 100 | > 100 µM | > 100 | > 100 | > 100 µM | > 100 | > 100 µM | > 100 µM | – | – | – | – | – | – | – | – | – | – | – | –
c1cncc(C2ONC3=NCCN32)c1 (stereo not drawn) | > 100 | > 100 µM | > 100 | > 100 | > 100 µM | 31.7 | 98.1 µM | – | 14.6 | 26.2 µM | 69.7 µM | 46.7 | 27.7 | 33.3 µM | 22.4 | 40 | > 100 | – | – | –
O=C(c1ccccc1)C(Br)C(Br)c1ccccc1 (stereo not drawn) | 28.8 | 25.7 µM | 24.2 | 3.5 | 27.7 µM | 22.6 | 25.6 µM | 6 µM | 10.4 | 15.3 µM | 12.7 µM | 11.8 | 1.92 | 11.9 µM | 12.1 | 2.59 | 6.26 | 2.53 µM | – | –
CN(C)c1ccc(N=C2C=CC(=C(C#N)C#N)c3ccccc32)cc1 | 6.53 | 12.7 µM | 3.32 | 0.199 | 14.9 µM | 15.9 | 5.71 µM | 1.06 µM | – | – | – | – | – | – | – | – | – | – | – | –
c1ccc2c3c([nH]c2c1)C1C2CCCCN2C(c2ccncc2)N1CC3 (stereo not drawn) | > 100 | 65.3 µM | > 100 | > 100 | > 100 µM | > 100 | 89 µM | – | – | – | – | – | – | – | – | – | – | – | – | –
O=C(CC1=Nc2nnc(-c3nnc4n3C(=O)C(CC(=O)C3CC3)=N4)n2C1=O)C1CC1 | > 100 | > 100 µM | > 100 | > 100 | > 100 µM | > 100 | > 100 µM | > 100 µM | – | – | – | – | – | – | – | – | – | – | – | –
COC(=O)C1CCC(=O)N1/C(C)=N/NC(=O)Nc1ccc(Cl)c(Cl)c1 (stereo not drawn) | > 100 | > 100 µM | > 100 | > 100 | > 100 µM | > 100 | > 100 µM | > 100 µM | – | – | – | – | – | – | – | – | – | – | – | –
CCCCCCCCCCCCCCC(C)CCC(=O)O (stereo not drawn) | – | > 100 µM | > 100 | > 100 | > 100 µM | > 100 | > 100 µM | > 100 µM | – | – | – | – | – | – | – | – | – | – | – | –
N#CC(NC(=O)CCl)=C(Cl)Cl | 16 | 3.17 µM | 2.69 | 2.99 | 8.01 µM | 3.26 | 4.27 µM | – | 1.73 | 5.05 µM | 1.67 µM | 1.34 | 1.44 | 2.74 µM | 1.63 | – | – | – | 3.46 | 17.1
CC(=O)[O-].[Mn+3].[O-]c1ccc(Cl)cc1C=NCCN=Cc1cc(Cl)ccc1[O-] | > 100 | > 100 µM | > 100 | – | > 100 µM | > 100 | > 100 µM | – | > 100 | > 100 µM | > 100 µM | > 100 | – | > 100 µM | > 100 | – | – | – | – | –
COc1ccc(C(=O)O/N=C2/CCCCC2CN(C)C)cc1 (stereo not drawn) | > 100 | – | > 100 | > 100 | > 100 µM | > 100 | > 100 µM | > 100 µM | – | – | – | – | – | – | – | – | – | – | – | –
COC(=O)c1sc(=NC(=S)N2CCCCC2)sc1C(=O)OC | > 100 | > 100 µM | > 100 | > 100 | – | > 100 | > 100 µM | – | – | – | – | – | – | – | – | – | – | – | – | –
OCC(O)C(O)C(O)C(O)c1nn[nH]n1 (stereo not drawn) | > 100 | – | > 100 | > 100 | > 100 µM | > 100 | 88.1 µM and > 100 µM | > 100 µM | – | – | – | – | – | – | – | – | – | – | – | –
CN(C)c1ccc(O[Si](Oc2ccc(N(C)C)cc2)(Oc2ccc(N(C)C)cc2)Oc2ccc(N(C)C)cc2)cc1 | > 100 | > 100 µM | > 100 | > 100 | > 100 µM | > 100 | > 100 µM | > 100 µM | – | – | – | – | – | – | – | – | – | – | – | –
O=C(/C=C(\[O-])c1ccccc1)CCCCCCC(=O)/C=C(\[O-])c1ccccc1.O=C(/C=C(\[O-])c1ccccc1)CCCCCCC(=O)/C=C(\[O-])c1ccccc1.O=C(/C=C(\[O-])c1ccccc1)CCCCCCC(=O)/C=C(\[O-])c1ccccc1.[Nd+3].[Nd+3] | > 50 | > 50 µM | > 50 | > 50 | > 50 µM | > 50 | > 50 µM | > 50 µM | > 50 | > 50 µM | > 50 µM | > 50 | > 50 | 40.2 µM | 3.3 | – | – | 43.8 µM | – | –
CC(=O)OCC1OC(n2c(=S)n(-c3ccccc3)c(=O)c3cc(Br)cc(Br)c32)C(OC(C)=O)C(OC(C)=O)C1OC(C)=O (stereo not drawn) | > 100 | 85.5 µM and > 100 µM | > 100 | > 100 | 71.4 µM and > 100 µM | > 100 | 92.5 µM and > 100 µM | 63.3 µM and > 100 µM | – | 45.1 µM and > 100 µM | 28.5 µM and 71.1 µM | – | – | 11.7 µM and 60.3 µM | – | – | – | 15.3 µM and 46.9 µM | – | –
Nc1ncc(C2[C@H](CNC(=O)c3cc(Br)c[nH]3)C(CNC(=O)c3cc(Br)c[nH]3)[C@@H]2c2cnc(N)[nH]2)[nH]1 (stereo partly drawn) | – | – | > 50 | – | > 50 µM | > 50 | – | > 50 µM | 21.4 | – | – | > 50 | – | > 50 µM | – | – | – | 43.7 µM | 40.1 | > 50
[Cl-].[Gd+3].[O-]/N=C(\c1ccccc1)c1ccccn1.[O-]/N=C(\c1ccccc1)c1ccccn1.[O-]/N=C(\c1ccccc1)c1ccccn1 | > 100 | > 100 µM | > 100 | > 100 | > 100 µM | > 100 | 71.9 µM | > 100 µM | 66.8 | 48 µM | 93.2 µM | 40.7 | 47.2 | 36.6 µM | 17.5 | – | – | > 100 µM | – | –
COc1cc2cc3c(c(O)c2c(O)c1-c1c(OC)cc2cc4c(c(O)c2c1O)C(=O)O[C@H](C)C4)C(=O)O[C@H](C)C3 | 84 | 99.2 µM | 32.5 | 78.7 | 78.1 µM | 38.8 | – | 74.3 µM | 18.3 | 26.5 µM | 32.3 µM | 17.1 | 27.2 | 24.5 µM | – | 23.3 | 57.2 | 31.3 µM | – | –
COc1cc(CCc2ccc(OC(C)=O)cc2)cc(OC)c1OC | – | > 100 µM | > 100 | > 100 | > 100 µM | > 100 | > 100 µM | > 100 µM | – | – | – | – | – | – | – | – | – | – | – | –
NC(N)=N/N=C/c1c(-c2ccc(Cl)c([N+](=O)[O-])c2)nc2sc3ccccc3n12 | – | – | 1.58 | – | – | 1.38 | – | – | 0.529 | – | – | 0.849 | 0.98 | – | – | – | – | – | 1.38 | 2.91
OCC#Cc1ccccc1C#Cc1ccc(C#Cc2ccccc2)cc1 | – | > 100 µM | 36.1 | 70.7 | > 100 µM | 35.6 | > 100 µM | – | 19 | – | 35.9 µM | 19.9 | 24.9 | 37.7 µM | 32.4 | – | – | – | 31 | > 100
COC(=O)[C@]1(C)CCC[C@]2(C)[C@@H]1CCC13C[C@@H](C=CO1)[C@@H](C)CC32O (stereo partly drawn) | > 100 | > 100 µM | > 100 | > 100 | 88.7 µM | > 100 | > 100 µM | > 100 µM | > 100 | > 100 µM | > 100 µM | > 100 | 64.4 | 27.5 µM | 62.2 | – | – | 22 µM | 20.7 | 76.5
Nc1nc(=S)[nH]c(C(=O)Nc2nccs2)c1-c1ccccc1 | > 100 | > 100 µM | > 100 | > 100 | > 100 µM | > 100 | > 100 µM | > 100 µM | – | – | – | – | – | – | – | – | – | – | – | –
COc1ccc(-c2cc(-c3ccco3)c(C#N)c(=O)[nH]2)cc1 | 72.2 | > 100 µM | > 100 | > 100 | > 100 µM | > 100 | > 100 µM | > 100 µM | – | – | – | – | – | – | – | – | – | – | – | –
